Assay results as given in patent publication US20090162314A1, “Magnesium-Containing Polymers for the Treatment of Hyperphosphatemia” (priority 2005, published 2009).

System: urinary phosphate
Assay: In vivo phosphate binding: urinary phosphate levels in rats fed test compound in diet
Set-up: species or system Sprague Dawley (SD) rats
Settings: SD rats, urine days 5 and 6, cellulose control
Protocol: House male Sprague Dawley (SD) rats were used for the experiments. The rats were placed singly in wire-bottom cages, fed with Purina 5002 diet, and allowed to acclimate for at least 5 days prior to experimental use.
To establish baseline phosphorus excretion, the rats were placed in metabolic cages for 48 hours. Their urine was collected and its phosphorus content analyzed with a Hitachi analyzer to determine phosphorus excretion in mg/day. Any rats with outlying values were excluded; and the remainder of the rats was distributed into groups.
Purina 5002 was used as the standard diet. The compound being tested was mixed with Purina 5002 to result in a final concentration by weight as noted in the table. Cellulose at 0.5% by weight was used as a negative control. For each rat, 200 g of diet was prepared.
Each rat was weighed and placed on the standard diet. After 4 days the standard diet was replaced with the treatment diet (or control diet for the control group). On days 5 and 6, urine samples from the rats at 24 hours (+/−30 minutes) were collected and analyzed. The test rats were again weighed, and any weight loss or gain was calculated. Any remaining food was also weighed to calculate the amount of food consumed per day. A change in phosphorus excretion relative to baseline and cellulose negative control was calculated using Excel program.

SMILES	% Urinary Phosphate Relative to that of Control Animals (2.38 % of diet) [%]	% Urinary Phosphate Relative to that of Control Animals (0.20 % of diet) [%]	% Urinary Phosphate Relative to that of Control Animals (0.25 % of diet) [%]	% Urinary Phosphate Relative to that of Control Animals (0.30 % of diet) [%]	% Urinary Phosphate Relative to that of Control Animals (0.40 % of diet) [%]	% Urinary Phosphate Relative to that of Control Animals (1.00 % of diet) [%]
[Cl-].[Cl-].[Mg+2] [MgCl2]	57.0	–	–	–	–	–
[Mg+2].[O-2] [MgO]	–	61.6	69.3	54.8	26.1	3.6
